Patent US20120142770A1, “PHARMACEUTICAL COMPOSITIONS OF HDAC INHIBITORS AND CHELATABLE METAL COMPOUNDS, AND METAL-HDAC INHIBITOR CHELATE COMPLEXES” (Merck Sharp & Dohme Corp, priority 2006, published 2012)
≈ marks a conversion by molar mass, not a printed value. Where two headings read alike, the source gives them in different places.

Assays:
[1] = in vivo; cited from earlier work
[2] = system: rats; conditions: rat, in vivo; cited from earlier work
[3] = system: patients with cancer; conditions: cited from earlier work
[4] = system: all animal species; conditions: cited from earlier work
[5] = Solubility of raw material (Table 1); assay type: physicochemical
Excerpt: Table 1 summarizes the physical properties of the raw materials in the capsule.

[6] = in vivo; conditions: female, CD1 nu/nu, mouse, ip
Experimental: To test whether the maximum tolerated dose (MTD) of vorinostat in mice can be increased with zinc supplementation, Mice (CD1 nu/nu female, 6-8 weeks old, Charles River Laboratories) are administered vehicle, 150 mg/kg (MTD) or 300 mg/kg vorinostat in vehicle (Table 11). Mice are given 0.5, 1, or 5 molar equivalents (relative to vorinostat) of zinc chloride. This corresponds to ZnCl2 doses of 38.5, 77, and 385 mg/kg for the 150 mg/kg vorinostat group.
Body weight and survival are monitored as indications of toxicity. Doses resulting in a group average body weight loss of more than 20% average will be considered non-tolerated. Likewise, doses resulting in the treatment-related death of more than 2 mice per group will be considered non-tolerated.

[7] = system: dogs; conditions: dog, in vivo; cited from earlier work

Row | SMILES | side effects [1] | Preclinical toxicity [2] | Clinical adverse experiences or side effects [3] | Preclinical toxicity [4] | solubility ([5]; 2% CIP100 aqueous solution, aqueous with cosolvent or surfactant or cyclodextrin, 2% CIP100 aqueous soln., read-out: Solubility in 2% CIP100 aqueous soln.) [mg/mL] | solubility ([5]; 2% SD-20 aqueous solution, aqueous with cosolvent or surfactant or cyclodextrin, 2% SD-20 aqueous soln., read-out: Solubility in 2% SD-20 aqueous soln.) [mg/mL] | solubility ([5]; in water, read-out: Solubility in Water) [mg/mL] | solubility ([5]; organic solvent or mixture, in methanol, read-out: Solubility in Methanol) [mg/mL] | MTD [6] [mg/kg] | Preclinical toxicity [7]
1 | CC(=O)N(O)CCCCCNC(=O)CCC(=O)N(O)CCCCCNC(=O)CCC(=O)N(O)CCCCCN [Desferrioxamine] | fatigue, bone marrow atrophy, thymic atrophy and neutropenia | – | – | – | – | – | – | – | – | –
2 | CC(=O)NO [Lithostat, acetohydroxamic acid] | nausea, vomiting, anorexia, fatigue, malaise, reticulocytosis, anemia, thrombocytopenia, leukopenia and headache | – | – | – | – | – | – | – | – | –
3 | O=C(CCCCCCC(=O)Nc1ccccc1)NO [Suberoylanilide hydroxamic acid (SAHA), N-hydroxy-N′-phenyloctanediamide] | – | thrombocytopenia | diarrhea, fatigue, nausea, thrombocytopenia, anorexia, dysgeusia, weight decrease, muscle spasms, alopecia, anemia, blood creatinine increase, vomiting, chills | weight loss or inappetence, immune suppression (leucopenia, lymphopenia, thymic atrophy) | 11.3 (≈ 42.8 mM) | 0.085 (≈ 0.322 mM) | < 0.1 | 42 (≈ 159 mM) | 150 | gastrointestinal toxicity (mucosal atrophy, acute inflammation, necrosis, multiple lesions), dehydration, electrolyte loss, testicular atrophy
